Test results taken from patent US11117905B2, “Bisaryl heterocycles as NRF2 activators” (GLAXOSMITHKLINE INTELLECTUAL PROPERTY DEVELOPMENT LIMITED, priority 2016, dated 2021).

system: NQO1 specific enzyme activity in BEAS-2B cells (marker for NRF2 activation); assay: BEAS-2B NQO1 MTT Assay; format: cell-based; conditions: Homo sapiens, BEAS-2B, 48 h, NQO1 specific activity induction, 48 hours with compound
Description: NAD(P)H:quinone oxidoreductase 1 (NQO1), also called DT diaphorase, is a homodimeric FAD-containing enzyme that catalyzes obligatory NAD(P)H-dependent two-electron reductions of quinones and protects cells against the toxic and neoplastic effects of free radicals and reactive oxygen species arising from one-electron reductions. The transcription of NQO1 is finely regulated by NRF2, and thus NQO1 activity is a good marker for NRF2 activation. On day one, frozen BEAS-2B cells (ATCC) were thawed in a water bath, counted, and re-suspended at a concentration of 250,000 cells/mL. Fifty microliters of cells were plated in 384 well black clear-bottomed plates. Plates were incubated at 37° C., 5% CO2 overnight. On day two, plates were centrifuged and 50 nL of compound or controls were added to the cells. Plates were then incubated at 37° C., 5% CO2 for 48 hours. On day four, medium was aspirated from the plate and crude cell lysates were made by adding 13 uL of 1× Cell Signaling Technologies lysis buffer with 1 Complete, Mini, EDTA-free Protease Inhibitor Tablet (Roche) for each 10 mL of lysis buffer. After lysis plates were incubated for 20 minutes at room temperature. Two microliters of lysate were removed for use in Cell Titer Glo assay (Promega) and MTT cocktail was prepared (Prochaska et. al. 1998) for measurement of NQO1 activity. Fifty microliters of MTT cocktail is added to each well, plate is centrifuged, and analyzed on an Envision plate reader (Perkin Elmer) using Absorbance 570 nm label for 30 minutes. Product formation was measured kinetically and the pEC50 of NQO1 specific activity induction was calculated by plotting the change in absorbance (Delta OD/min) versus the log of compound concentration followed by 3-parameter fitting.
pEC50 is the negative log of the EC50.
EC50s<1 nM (+++++), EC50s 1 nM-10 nM (++++), EC50s 10 nM-100 nM (+++), EC50s 100 nM-1 uM (++), EC50s 1 uM-10 uM (+), EC50s>10 uM (−), or were not determined (ND).

Compound | EC50
CC[C@H]1Cc2ccccc2S(=O)(=O)N(Cc2nc([C@@H](c3ccc4c(nnn4CC)c3C)C(C)(C)C(=O)O)sc2C)C1 [Example 41, (S)-3-(4-(((S)-4-Ethyl-1,1-dioxido-4,5-dihydrobenzo[f][1,2]thiazepin-2(3H)-yl)methyl)-5-methylthiazol-2-yl)-3-(1-ethyl-4-methyl-1H-benzo[d][1,2,3]triazol-5-yl)-2,2-dimethylpropanoic Acid] | < 0.001 µM
CC[C@H]1Cc2ccccc2S(=O)(=O)N(Cc2nc([C@@H](c3ccc4c(nnn4CC)c3C)C(C)(C)C(=O)Nc3cccnc3)sc2C)C1 [Example 42, (S)-3-(4-(((S)-4-Ethyl-1,1-dioxido-4,5-dihydrobenzo[f][1,2]thiazepin-2(3H)-yl)methyl)-5-methylthiazol-2-yl)-3-(1-ethyl-4-methyl-1H-benzo[d][1,2,3]triazol-5-yl)-2,2-dimethyl-N-(pyridin-3-yl)propanamide] | 0.01 to 0.1 µM
CCn1nnc2c(F)c([C@@H](c3cc(CN4C[C@@H](C)Cc5ccc(C(F)(F)F)cc5S4(=O)=O)c(Cl)s3)C(C)(C)C(=O)O)ccc21 [Example 43, (S)-3-(5-Chloro-4-(((S)-4-methyl-1,1-dioxido-8-(trifluoromethyl)-4,5-dihydrobenzo[f][1,2]thiazepin-2(3H)-yl)methyl)thiophen-2-yl)-3-(1-ethyl-4-fluoro-1H-benzo[d][1,2,3]triazol-5-yl)-2,2-dimethylpropanoic Acid] | 0.01 to 0.1 µM
CCn1nnc2c(C)c([C@H](c3nc(CN4C[C@@H](C)Cc5cc(C(F)(F)F)ccc5S4(=O)=O)c(C)s3)C(C)(C)C(=O)O)ccc21 [Example 44, (S)-3-(1-Ethyl-4-methyl-1H-benzo[d][1,2,3]triazol-5-yl)-2,2-dimethyl-3-(5-methyl-4-(((S)-4-methyl-1,1-dioxido-7-(trifluoromethyl)-4,5-dihydrobenzo[f][1,2]thiazepin-2(3H)-yl)methyl)thiazol-2-yl)propanoic Acid] | < 0.001 µM
CCn1nnc2c(C)c([C@H](c3nc(CN4C[C@@H](C)Cc5cc(C(F)(F)F)ccc5S4(=O)=O)c(C)s3)C(C)(C)C(=O)Nc3cccnc3)ccc21 [Example 45, (S)-3-(1-Ethyl-4-methyl-1H-benzo[d][1,2,3]triazol-5-yl)-2,2-dimethyl-3-(5-methyl-4-(((S)-4-methyl-1,1-dioxido-7-(trifluoromethyl)-4,5-dihydrobenzo[f][1,2]thiazepin-2(3H)-yl)methyl)thiazol-2-yl)-N-(pyridin-3-yl)propanamide] | 0.01 to 0.1 µM
CC[C@@H]1CN(Cc2cc([C@H](CC(=O)O)c3ccc4c(nnn4CC)c3C)sc2C)S(=O)(=O)c2cccnc2O1 [Example 46, (R)-3-(4-(((R)-4-Ethyl-1,1-dioxido-3,4-dihydro-2H-pyrido[2,3-b][1,4,5]oxathiazepin-2-yl)methyl)-5-methylthiophen-2-yl)-3-(1-ethyl-4-methyl-1H-benzo[d][1,2,3]triazol-5-yl)propanoic Acid] | 0.01 to 0.1 µM
CC[C@@H]1CN(Cc2cc([C@H](CC(=O)O)c3ccc4c(nnn4CC)c3C)sc2C)S(=O)(=O)c2cnccc2O1 [Example 47, (R)-3-(4-(((R)-4-Ethyl-1,1-dioxido-3,4-dihydro-2H-pyrido[4,3-b][1,4,5]oxathiazepin-2-yl)methyl)-5-methylthiophen-2-yl)-3-(1-ethyl-4-methyl-1H-benzo[d][1,2,3]triazol-5-yl)propanoic Acid] | 0.01 to 0.1 µM
CC[C@H]1Cc2ccc(C(F)(F)F)cc2S(=O)(=O)N(Cc2nc([C@@H](c3ccc4c(nnn4CC)c3C)C(C)(C)C(=O)Nc3cccnc3)sc2C)C1 [Example 48, (S)-3-(4-(((S)-4-Ethyl-1,1-dioxido-8-(trifluoromethyl)-4,5-dihydrobenzo[f][1,2]thiazepin-2(3H)-yl)methyl)-5-methylthiazol-2-yl)-3-(1-ethyl-4-methyl-1H-benzo[d][1,2,3]triazol-5-yl)-2,2-dimethyl-N-(pyridin-3-yl)propanamide] | 0.01 to 0.1 µM
CC[C@H]1Cc2ccc(C(F)(F)F)cc2S(=O)(=O)N(Cc2nc([C@@H](c3ccc4c(nnn4CC)c3C)C(C)(C)C(=O)O)sc2C)C1 [Example 49, (S)-3-(4-(((S)-4-Ethyl-1,1-dioxido-8-(trifluoromethyl)-4,5-dihydrobenzo[f][1,2]thiazepin-2(3H)-yl)methyl)-5-methylthiazol-2-yl)-3-(1-ethyl-4-methyl-1H-benzo[d][1,2,3]triazol-5-yl)-2,2-dimethylpropanoic Acid] | < 0.001 µM
CCn1nnc2c(C)c([C@H](c3cc(CN4C[C@@H](C)Cc5ccc(C(F)(F)F)cc5S4(=O)=O)n(C)n3)C(C)(C)C(=O)O)ccc21 [Example 50, (S)-3-(1-Ethyl-4-methyl-1H-benzo[d][1,2,3]triazol-5-yl)-2,2-dimethyl-3-(1-methyl-5-(((S)-4-methyl-1,1-dioxido-8-(trifluoromethyl)-4,5-dihydrobenzo[f][1,2]thiazepin-2(3H)-yl)methyl)-1H-pyrazol-3-yl)propanoic Acid] | 0.001 to 0.01 µM
CC[C@@H]1CN(Cc2cc([C@@H](c3ccc4c(nnn4CC)c3C)C(C)(C)C(=O)Nc3cccnc3)sc2C)S(=O)(=O)c2ccccc2O1 [Example 51, (S)-3-(4-(((R)-4-Ethyl-1,1-dioxido-3,4-dihydro-2H-benzo[b][1,4,5]oxathiazepin-2-yl)methyl)-5-methylthiophen-2-yl)-3-(1-ethyl-4-methyl-1H-benzo[d][1,2,3]triazol-5-yl)-2,2-dimethyl-N-(pyridin-3-yl)propanamide] | 0.001 to 0.01 µM
CCn1nnc2c(C)c([C@H](c3cc(CN4C[C@@H](C)Cc5ccccc5S4(=O)=O)c(C)s3)C(C)(C)C(=O)Nc3cccnc3)ccc21 [Example 52, (S)-3-(1-Ethyl-4-methyl-1H-benzo[d][1,2,3]triazol-5-yl)-2,2-dimethyl-3-(5-methyl-4-(((S)-4-methyl-1,1-dioxido-4,5-dihydrobenzo[f][1,2]thiazepin-2(3H)-yl)methyl)thiophen-2-yl)-N-(pyridin-3-yl)propanamide] | 0.001 to 0.01 µM
CC[C@@H]1CN(Cc2cc([C@@H](c3ccc4c(nnn4CC)c3F)C(C)(C)C(=O)O)sc2Cl)S(=O)(=O)c2ccccc2O1 [Example 53, (R)-3-(5-Chloro-4-(((R)-4-ethyl-1,1-dioxido-3,4-dihydro-2H-benzo[b][1,4,5]oxathiazepin-2-yl)methyl)thiophen-2-yl)-3-(1-ethyl-4-fluoro-1H-benzo[d][1,2,3]triazol-5-yl)-2,2-dimethylpropanoic Acid] | < 0.001 µM
CC[C@@H]1CN(Cc2cc([C@@H](c3ccc4c(nnn4CC)c3C)C(C)(C)C(=O)O)sc2Cl)S(=O)(=O)c2cccnc2O1 [Example 54, (S)-3-(5-Chloro-4-(((R)-4-ethyl-1,1-dioxido-3,4-dihydro-2H-pyrido[2,3-b][1,4,5]oxathiazepin-2-yl)methyl)thiophen-2-yl)-3-(1-ethyl-4-methyl-1H-benzo[d][1,2,3]triazol-5-yl)-2,2-dimethylpropanoic Acid] | < 0.001 µM
CC[C@H]1Cc2ccc(C(F)(F)F)cc2S(=O)(=O)N(Cc2cc([C@@H](c3ccc4c(nnn4CC)c3C)C(C)(C)C(=O)O)sc2C)C1 [Example 55, (S)-3-(4-(((S)-4-Ethyl-1,1-dioxido-8-(trifluoromethyl)-4,5-dihydrobenzo[f][1,2]thiazepin-2(3H)-yl)methyl)-5-methylthiophen-2-yl)-3-(1-ethyl-4-methyl-1H-benzo[d][1,2,3]triazol-5-yl)-2,2-dimethylpropanoic Acid] | < 0.001 µM
CC[C@@H]1CN(Cc2cc([C@@H](c3ccc4c(nnn4CC)c3C)C(C)(C)C(=O)O)sc2Cl)S(=O)(=O)c2cnccc2O1 [Example 56, (S)-3-(5-Chloro-4-(((R)-4-ethyl-1,1-dioxido-3,4-dihydro-2H-pyrido[4,3-b][1,4,5]oxathiazepin-2-yl)methyl)thiophen-2-yl)-3-(1-ethyl-4-methyl-1H-benzo[d][1,2,3]triazol-5-yl)-2,2-dimethylpropanoic Acid] | < 0.001 µM
CCn1nnc2c(F)c([C@H](c3cc(CN4C[C@@H](C)Cc5ccc(C(F)(F)F)cc5S4(=O)=O)c(Cl)s3)C(C)(C)C(=O)O)ccc21 [Example 57, (R)-3-(5-Chloro-4-(((S)-4-methyl-1,1-dioxido-8-(trifluoromethyl)-4,5-dihydrobenzo[f][1,2]thiazepin-2(3H)-yl)methyl)thiophen-2-yl)-3-(1-ethyl-4-fluoro-1H-benzo[d][1,2,3]triazol-5-yl)-2,2-dimethylpropanoic Acid] | < 0.001 µM
CC[C@@H]1CN(Cc2cc([C@H](CCc3cn(CC)nn3)C(C)(C)C(=O)O)sc2C)S(=O)(=O)c2cccnc2O1 [Example 58, (R)-3-(4-(((R)-4-Ethyl-1,1-dioxido-3,4-dihydro-2H-pyrido[2,3-b][1,4,5]oxathiazepin-2-yl)methyl)-5-methylthiophen-2-yl)-5-(1-ethyl-1H-1,2,3-triazol-4-yl)-2,2-dimethylpentanoic Acid] | 0.001 to 0.01 µM
